These results are taken from patent publication US20050143291A1, “Methods and compositions for modulating apoptosis” (priority 2003, published 2005).

The test system of one assay is Control cells. Put plainly: % Survival (Colony Assay), control cells. It is filed as cell-based. Here is the method:
(§1) Experiments were also performed to determine the anti-apoptotic effect conferred by overexpression of GRP78. This task was completed.
(§2) Clonogenic Survival Assays—Four thousand cells were seeded into 10-cm-diameter dishes. […] After drug treatment, the cells were grown in fresh medium for 10 to 14 days. The colonies were washed with ice-cold PBS, fixed with methanol, and stained with 10% Giemsa staining solution. The surviving fraction was determined by dividing the number of the surviving colonies in the drug-treated cells by the number of colonies in the non-treated control groups.

Assay [1] deals with GRP78 Overexpression cells. Description: % Survival (Colony Assay), GRP78 overexpression. It is filed as cell-based. As to conditions: for % Survival (Colony Assay): GRP78 Overexpression. Here is the method: as §1, §2
Assay [2] has as its system CHO cells. Description: Annexin V staining and FACS analysis, CHO cells. It is filed as cell-based, Chinese hamster. Conditions: 30 μM etoposide for 6 h. The source says:
(§3) FIG. 3, Panel A depicts GRP78 overexpression protecting cells from etoposide-induced apoptosis. […] Viable cells are those with low annexin or no annexin and PI staining (lower left panel). Early stage apoptotic cells are represented by high annexin and low PI staining (lower right panel), later stage apoptotic cells represented by high annexin and high PI staining (upper right panel), and necrosis is represented by cells with high PI and low annexin staining (upper left panel).
(§4) Annexin V Staining and FACS Analysis—CHO, C.1, and T24/83 cells were trypsinized, washed twice with ice-cold PBS, pH 7.4, and resuspended in […] binding buffer (10 mM HEPES, pH 7.4, 140 mM NaCl, 2.5 mM CaCl2 at a concentration of 1×10^6 cells/ml. One hundred μl of cell suspension was transferred to 5-ml plastic tubes, and 5 μl of annexin V-fluorescein isothiocyanate (PharMingen) and 4 μl of 0.5 mg/ml PI were added. The cells were gently vortexed and incubated in the dark at room temperature for 20 min. Four hundred μl of binding buffer was added to each tube, and annexin V staining was analyzed by flow cytometry within 1 h. Cells negative for both PI and annexin V staining are live cells, annexin V positive staining cells are early apoptotic cells, and PI positive and annexin V positive staining cells are primarily cells in late stages of apoptosis.
(§5) The apoptotic cells were identified by annexin V labeling.
Background: In flow cytometry, cells or beads pass a laser one at a time.

For assay [3], the system named is C.1 cells (CHO derivative overexpressing GRP78). Description: Annexin V staining and FACS analysis, C.1 cells. It is filed as cell-based, Chinese hamster. As to conditions: 30 μM etoposide for 6 h.
Excerpt: as §3, §4, §5

In a further assay the test system is T24/83-pcDNA cells. Description: Annexin V staining and FACS analysis, T24/83-pcDNA cells. As to conditions: versus non-treated. It is filed as cell-based, human. The protocol:
as §4
(§6) A pair of stably transfected human transitional bladder carcinoma T24/83 cell lines selected and cultured under identical conditions, were used to determine the effect of GRP overexpression on neoplastic cells. The cell line, referred to as T24/83-GRP78, overexpressed human GRP78, and the other line, referred to as T24/83-pcDNA, was stably transfected with the empty expression vector pcDNA (28).

For assay [4], the system named is T24/83-GRP78 cells. Description: Annexin V staining and FACS analysis, T24/83-GRP78 cells. It is filed as cell-based, human. As to conditions: versus non-treated. Here is the method:
as §4, §6

The subject of the next assay is endogenous GRP78. Put plainly: Immunoblot of endogenous GRP78 in MDA-MB-435 cells infected with 320 bp AS adenovirus, with or without etoposide. It is filed as cell-based, human. As to conditions: mock-infected, etoposide treatment by itself. Here is the method:
The same cells were infected with the GFP negative control adenovirus. […] Thus, both the full length and the 320 bp version of the AS construct targeted against GRP78 blocked expression of GRP78 in a 293T test system.
Western Blotting—The cell lysate was prepared in radioimmune precipitation assay buffer and subjected to immunoblot with antibodies against GRP78, GRP94, topoisomerase II, caspase-7, and α-actin as described. Nitrocellulose membranes containing the transferred proteins were blocked in Tris-buffered saline containing 5% non-fat dry milk and 0.1% Tween 20 for 1 h at room temperature and were probed with the respective primary antibodies. For GRP78, an anti-KDEL mouse monoclonal antibody (SPA-827), an anti-GRP78 rabbit polyclonal antibody directed against the carboxyl ten amino acids of rat GRP78 (SPA-826) (StressGen, Victoria, Canada), or an anti-hamster GRP78 rabbit polyclonal antibody at 1:3000, 1:2000, and 1:5000 dilution, respectively, was used. […]

The subject of a further assay is caspase-7. Put plainly: Caspase-7 activation in etoposide-treated CHO cells (Western blot). It is filed as cell-based, Chinese hamster. As to conditions: 100 μM etoposide for 6 h, harvested after 24 h. The protocol:
FIG. 5, Panel A depicts the effect of GRP78 overexpression on topoisomerase II expression and caspase-7 activation. Total protein lysates were prepared from non-treated (Ctrl) or etoposide-treated (Etop) CHO and C.1 cells.
Among the executor caspases, caspase-7 has been reported to be associated with the ER. Upon induction of apoptosis, procaspase-7 (35 kDa) is first converted into a 32-kDa intermediate, which is further processed into active 20- and 11-kDa subunits. […] Upon longer exposure of the autoradiogram, the active 20- and 11-kDa forms were evident in the etoposide-treated cells. When GRP78 was overexpressed, a low level of caspase-7 activation was detected in both the non-treated and etoposide-treated cells. […] In addition, upon addition of cytochrome c, caspase-7 activation was higher in CHO cells than C.1 cells, as evidenced by the increase in the active 20- and 11-kDa forms in the CHO samples compared with the C.1 samples.
The cells were suspended in 5 volumes of a hypotonic buffer (5 mM Tris-HCl, pH 7.4, 5 mM KCl, 1.5 mM MgCl2, 0.1 mM EGTA, pH 8.0, and 1 mM dithiothreitol) in the presence of 2 μg/ml leupeptin, pepstatin, and aprotinin protease inhibitors. After incubation on ice for 20 min, sucrose was added to a final concentration of 250 mM, and the cells were disrupted by douncing eight times in a 1-ml Wheaton Dounce homogenizer. […]
In general terms: In western blotting, separated proteins are transferred to a membrane and probed.

Assay [5] concerns CHO cells. Description: DNA fragmentation assay, CHO cells. It is filed as cell-based, Chinese hamster. As to conditions: etoposide-treated CHO cells, compared with C.1 cells; 100 μM for 12 h, harvested after 48 h. Here is the method:
The DNA fragmentation assays were performed using an apoptosis DNA ladder kit (Roche Molecular Biochemicals) according to manufacturer's instructions.
as §5

Assay [6] has as its system T24/83-GRP78 cells. Description: Clonogenic survival assays, T24/83 cells overexpressing GRP78. Conditions: versus T24/83-pcDNA cells. It is filed as cell-based, human. Here is the method:
as §2

Turning to `COc1cc([C@@H]2c3cc4c(cc3[C@@H](O[C@@H]3O[C@@H]5CO[C@@H](C)O[C@H]5[C@H](O)[C@H]3O)[C@H]3COC(=O)[C@H]23)OCO4)cc(OC)c1O` [Etoposide], the “% Survival (Colony Assay)” value is recorded as 71% with Control cells (etoposide 0.2 μM); 67% with Control cells (etoposide 0.4 μM); 26% in the assay with Control cells (etoposide 0.8 μM); 1.5% in the assay on Control cells (etoposide 1.6 μM); 93% in [1] (etoposide 0.2 μM); 93% in assay [1] (etoposide 0.4 μM). Moreover, the “% Survival (Colony Assay)” value was found to be 77% in assay [1] (etoposide 0.8 μM) and 63% in [1] (etoposide 1.6 μM). In addition, in assay [1] (GRP78 overexpression versus control), the “effect of GRP78 overexpression on sensitivity to the drug” value was “confers resistance”. Further, the “percentage of apoptotic cells (annexin V labeling) upon etoposide treatment” value in the assay on CHO cells [2] (non-treated 9%) is 90%; in assay [3] (non-treated 15%) it was 70%. For the same compound, the “increase of the percentage of apoptotic cells upon etoposide treatment” value in the assay with CHO cells [2] (versus non-treated) was found to be 10 fold; in [3] (versus non-treated) it was 4.7 fold. Besides, the “increase of the percentage of annexin V-labeled cells by etoposide treatment” value with T24/83-pcDNA cells came out at 2.7 fold; in the assay on T24/83-GRP78 cells [4] it was 1.4 fold. The “reduction of the amount of endogenous GRP78” value in the assay with endogenous GRP78 is “about 40%”. Besides, the caspase-7 activation entry in the assay on caspase-7 is on record as “activation of caspase-7”. Moreover, in the assay with CHO cells [5], the DNA fragmentation entry is “More extensive DNA fragmentation”. Also, the “resistance of T24/83 cells overexpressing GRP78 (clonogenic survival)” value in the assay with T24/83-GRP78 cells [6] was “more resistance”.
